Reference: patent publication US4983601A, “Benzo(b)pyrrolobenzodiazepines” (Hoechst-Roussel Pharmaceutical Inc., priority 1989, dated 1991)

System: phenyl-para-quinone induced writhes
Assay: phenyl-para-quinone writhing assay in mice (analgetic activity)
Assay type: in vivo
Conditions: screening dose of 20 mg/kg, subcutaneous (sc)
Method: Exptl. Biol. Med., 95, 729 ([…])]. Presented in the Table is the analgetic activity of representative compounds of the invention and a standard, expressed as the estimated subcutaneous dose at which the mice experience a 50% reduction in phenyl-para-quinone induced writhes, i.e., the ED50 -value, or the percent inhibition of writhing caused by a screening dose of 20 mg/kg of body weight administered subcutaneously (sc).

| SMILES | Analgetic Activity, percent inhibition of writhing |
| --- | --- |
| O=c1n(CCc2ccccc2)nc2n1-c1ccccc1N1CCc3cccc-2c31 [1,2-Dihydro-7-(2-phenylethyl)benzo[b]pyrrolo[3,2,1-jk][1,2,4]triazolo[4,3-d][1,4]benzodiazepin-8(7H)-one] | 62% |
| O=c1n(CCCc2noc3cc(F)ccc23)nc2n1-c1cc(Br)ccc1N1CCc3cccc-2c31 [11-Bromo-1,2-dihydro-7-[3-(6-fluoro-1,2-benzisoxazol-3-yl)-1-propyl]benzo[b]pyrrolo[3,2,1-jk][1,2,4]triazolo[4,3-d][1,4]benzodiazepin-8(7H)-one] | 54% |
| Brc1ccc2c(c1)-n1nnnc1-c1cccc3c1N2CC3 [11-Bromo-1,2-dihydrobenzo[b]pyrrolo[3,2,1-jk]tetrazolo[1,5-d][1,4]benzodiazepine] | 56% |
| Cc1ccc2c(c1)n1c(CN(C)C)nnc1c1cccc3ccn2c31 [11-Methyl-8-(dimethylamino)methylbenzo[b]pyrrolo[3,2,1-jk][1,2,4]triazolo[4,3-d][1,4]benzodiazepine] | 57% |

Same assay, conditions: subcutaneous (sc)

| SMILES | Analgetic Activity, ED50 (estimated subcutaneous dose at which the mice experience a 50% reduction in phenyl-para-quinone induced writhes) |
| --- | --- |
| CN(C)Cc1nnc2n1-c1cc(Br)ccc1N1CCc3cccc-2c31 [11-Bromo-1,2-dihydro-8-(dimethylamino)methylbenzo[b]pyrrolo[3,2,1-jk][1,2,4]triazolo[4,3-d][1,4]benzodiazepine] | 3.55 mg/kg |
| CCC(=O)O[C@](Cc1ccccc1)(c1ccccc1)[C@H](C)CN(C)C [propoxyphene, reference compound] | 3.9 mg/kg |
